Experimental data reported in patent publication US20100323012A1, “Pharmaceutical Compositions Comprising NEP-Inhibitors, Inhibitors of the Endogenous Endothelin Producing System and Diuretics” (Solvay Pharmaceuticals GmbH, priority 2005, published 2010).

Test system: spontaneously hypertensive rat
Assay: Telemetric monitoring of blood pressure and heart rate in spontaneously hypertensive rats, compounds given via drinking water
Assay type: in vivo
Conditions: male SHR; for effect on blood pressure (in words): 3 weeks of treatment via drinking water; for DBP (diastolic blood pressure), effect in relation to baseline, group mean of 24 hour means / HR (heart rate), effect in relation to baseline, group mean of 24 hour means / SBP (systolic blood pressure), effect in relation to baseline, group mean of 24 hour means: day 23 (after 3 weeks of treatment) minus baseline (day 3), via drinking water, intended 10 mg/kg/day hydrochlorothiazide, 100 mg/kg/day daglutril, n = 5 per group
From the text: Male spontaneously hypertensive rats (=SHR, insulin resistant strain from Charles River; aged 6 months) were equipped with telemetry transmitters for continuous monitoring of blood pressure and heart rate (TA11PA-C40, DSI, USA). Telemetry transmitters for continuous monitoring of blood pressure, heart rate and locomotor activity (TA11PA-C40, Data Sciences, USA) were implanted intraabdominally under inhalative halothane anesthesia. A midline abdominal incision was made, and the abdominal aorta was visualized by removal of retroperitoneal fat and connective tissue. A ligature was placed caudal of the renal arteries, the aorta was punctured with a 22G needle, and the catheter was advanced into the aorta. The entry point was sealed with tissue adhesive (Vetbond, 3M, USA), the ligature was removed, and the abdominal incision was closed. Measurements of aortic pressure were taken every 5 minutes (=min) for 4 seconds (=s) each at a sampling rate of 500 Hz, and were corrected for the corresponding ambient pressure (ambient pressure monitor, C11PR, Data Sciences, USA).
After 3 days of monitoring under baseline (untreated) conditions, animals received daglutril via their drinking water. The intended daily dose was 100 mg/kg/day of daglutril. The concentration in drinking water was adjusted once per week, resulting in an average drug intake of 98 mg/kg/day.
In a second experiment, rats were divided into two treatment groups receiving hydrochlorothiazide or hydrochlorothiazide+daglutril. Compounds were administered via the drinking water, and daily drug intake was measured by weighing the water bottles thrice weekly. Intended daily doses were 10 mg/kg/day of hydrochlorothiazide plus, in the combination group, 100 mg/kg/day of daglutril.
Concentrations of hydrochlorothiazide and daglutril in the drinking water were adjusted once per week, in order to ensure the intended daily intake of 10 and 100 mg/kg, respectively. The average daily water intake amounted to 57 and 46 ml/kg in the hydrochlorothiazide and hydrochlorothiazide+daglutril group, respectively, resulting in the uptake of 9.5 mg/kg/day of hydrochlorothiazide in the hydrochlorothiazide group, and 9.4 mg/kg/day of hydrochlorothiazide and 94.4 mg/kg/day of daglutril in the combination group.
The blood pressure, heart rate and activity values, sampled in 5 min intervals by the Dataquest™ system, were used for calculation of individual 24 hour means. These 24 hour means were exported to Excel, and group mean values of systolic blood pressure (=SBP), diastolic blood pressure (=DBP), heart rate (=HR), and locomotor activity (=ACT) were calculated for the daglutril, hydrochlorothiazide and the hydrochlorothiazide+daglutril groups. For the statistical analysis, a baseline value (pre) was calculated from the last day prior to compound application (day 3), and effects of daglutril, hydrochlorothiazide and hydrochlorothiazide+daglutril were calculated in relation to this baseline value (day 23, i.e. after 3 weeks of treatment, minus baseline value). The statistical comparison was done by using univariate ANOVA at an error level of P<0.05.

Structure (SMILES) | effect on blood pressure (in words) | DBP (diastolic blood pressure), effect in relation to baseline, group mean of 24 hour means [mmHg] | HR (heart rate), effect in relation to baseline, group mean of 24 hour means [min⁻¹] | SBP (systolic blood pressure), effect in relation to baseline, group mean of 24 hour means [mmHg]
NS(=O)(=O)c1cc2c(cc1Cl)NCNS2(=O)=O [HCTZ, hydrochlorothiazide] | moderate decrease | −7.7 | -4.5 | −11.3
CCOC(=O)C(CCc1ccccc1)CC1(C(=O)NC2CCc3ccccc3N(CC(=O)O)C2=O)CCCC1 (centres unmarked) [daglutril, 2-[1-(1-carboxymethyl-2-oxo-2,3,4,5-tetrahydro-1H-benzo[b]azepin-3-ylcarbamoyI)-cyclopentylmethyl]-4-phenyl-butyric acid ethyl ester] | no effect | 2.0 | -6.0 | −0.3
